Laboratory results: paper PMC4977651, “Molecular features of biguanides required for targeting of mitochondrial respiratory complex I and activation of AMP-kinase” (BMC Biology, 2016)
Several values for one entry are separate records, joined by “and”; a condition that tells them apart may be missing. Identical values can stand only once.

Experiments:
[1] = tested on: acetyl-coA carboxylase (phospho-Ser79); assay: AMPK activation, western blot of phospho-acetyl-coA carboxylase in MDBK cells; type: cell-based, Bos taurus; conditions: for ACC, average normalised to control: Averages of experiments 1-3, 18 hours; for p-ACC: band intensity
Description: MDBK cells were seeded at 1 × 10^6 cells per 6 cm dish in DMEM containing 10 % FBS. […] After 18 h cells were harvested by a rapid lysis procedure: cells were rinsed with PBS, then lysed using ice-cold buffer containing 50 mM HEPES, 1 mM EDTA, 10 % glycerol, 50 mM NaF, 5 mM sodium pyrophosphate, 1 % Triton-X100, 1 mM dithiothreitol (DTT), and a protease inhibitor cocktail (Roche). The cell lysate was centrifuged at 14,000 × g for 20 min at 4 °C and the protein concentration of the supernatant determined by bicinchoninic acid assay. The lysate was analyzed using Novex 3–12 % bis-Tris gels run in 3-(N-morpholino)propanesulfonic acid (MOPS) buffer (20 μg of protein per lane) followed by transfer to low fluorescence polyvinylidene fluoride membranes by wet transfer. Primary rabbit antibodies for AMPK-β (57C12), AMPK-α (phospho-Thr172) (40H9), and acetyl-coA carboxylase (phospho-Ser79) (Cell Signaling Technology) were incubated overnight with the membrane (1:1000 dilution) in Odyssey blocking buffer at 4 °C. A fluorescent secondary antibody was used (IRDYE800CW from LI-COR Biosciences, 1:20,000 dilution) with a LI-COR Odyssey imaging system.

143B cells = assay: Rotenone-sensitive oxygen consumption rate in intact 143B cells; type: cell-based, human; conditions: for rotenone sensitive OCR after 6 hours of biguanide exposure, % control, average / rotenone sensitive OCR after 6 hours of biguanide exposure, average: biguanide at IC50/10; for rotenone sensitive OCR after 6 hours of biguanide exposure, average: OCR normalized to OCR immediately prior to biguanide addition; for inhibition of rotenone-sensitive respiration (in words): intact 143B cells, biguanide at IC50/10, monitored for 6 h
Description: (§1) 143B (CRL-8303 from ATCC), HepG2 (85011430 from The Health Protection Agency), and MDBK (CCL-22 from ATCC) cells were grown on Dulbecco’s modified Eagle’s medium (DMEM) supplemented with 10 % fetal bovine serum (FBS, Thermo Fisher Scientific) at 37 °C in 5 % CO2. All cells were confirmed as negative for mycoplasma.
(§2) Oxygen consumption rates (OCRs) were measured using a Seahorse XF96 extracellular flux analyzer at 37 °C. For intact cell measurements, 1.4 × 10^4 143B, HepG2, or MDBK cells were plated (per well) in DMEM containing 10 % FBS into Seahorse Bioscience Inc. XF96 plates and incubated for ~12 h at 37 °C in 5 % CO2. Then, the medium was exchanged for assay buffer containing DMEM, 4.5 g L^−1 glucose, 1 mM pyruvate, 32 mM NaCl, 2 mM GlutaMAX, 15 mg L^−1 phenol red, and 20 mM HEPES (pH 7.4 at 37 °C) and the cells placed in a CO2-free incubator at 37 °C for 30 min. Basal oxygen consumption rates were established before the addition of biguanides at one-tenth of their IC50 (IC50/10), and followed for ~ 6 h before the addition of rotenone (2 μM).
(§3) Rotenone-sensitive OCRs were calculated by subtracting the rotenone-insensitive rates (determined at the end of the experiment). OCRs were normalized by dividing by the OCR recorded immediately prior to the addition of biguanide. For rate of uptake calculations, the OCRs at time points after biguanide addition were divided by the OCRs at the same time points in control experiments. Data from wells with failed port injections were excluded from the analyses. The respiratory control ratio (RCR) values (state III versus state IV respiration) were ~11 and ~6 for permeabilized MDBK and 143B cells, respectively.

permeabilized 143B cells = assay: ADP-stimulated rotenone-sensitive OCR in permeabilized 143B cells; type: cell-based, human; design: rotenone sensitive OCR after ADP stimulation, individual replicates / rotenone sensitive OCR after ADP stimulation, average: unit not given here; conditions: for rotenone sensitive OCR after ADP stimulation, % of control, average / rotenone sensitive OCR after ADP stimulation, average / rotenone sensitive OCR after ADP stimulation, % of control, individual replicates / rotenone sensitive OCR after ADP stimulation, individual replicates: 143B permeabilised cells; for rotenone sensitive OCR after ADP stimulation, % of control, average / rotenone sensitive OCR after ADP stimulation, average: average of replicates; for rotenone sensitive OCR after ADP stimulation, % of control, individual replicates / rotenone sensitive OCR after ADP stimulation, individual replicates: replicate 1-11
Description: For permeabilized cell experiments, cells were seeded into XF96 plates at 0.9–1.1 × 10^4 per well and incubated for 48 h at 37 °C in 5 % CO2. Then, the growth medium was exchanged for assay buffer containing 3 nM plasma membrane permeabilizer ‘PMP’ (Seahorse Biosciences Inc.), 10 mM glutamate, 10 mM malate, 220 mM mannitol, 70 mM sucrose, 10 mM KH2PO4, 5 mM MgCl2, 1 mM EGTA, 0.2 % fatty acid-free bovine serum albumin (BSA), and 2 mM HEPES (pH 7.4 at 37 °C). […] The biguanides were allowed to accumulate for 30 min, then respiration was […] by the addition of 4 mM ADP. Rotenone was added (2 μM) at the end of the experiment.
as §3

MDBK cells = assay: Rotenone-sensitive oxygen consumption rate in intact MDBK cells; type: cell-based, Bos taurus; design: key to rotenone sensitive OCR after 40 mins of biguanide exposure / rotenone sensitive OCR after 40 mins of biguanide exposure, average: % of OCR recorded immediately before biguanide addition; conditions: for rotenone sensitive OCR after 6 hours of biguanide exposure, % control, average / rotenone sensitive OCR after 6 hours of biguanide exposure, average / rotenone sensitive OCR after 40 mins of biguanide exposure, % control, average / rotenone sensitive OCR after 40 mins of biguanide exposure, average / rotenone sensitive OCR after 40 mins of biguanide exposure / rotenone sensitive OCR after 40 mins of biguanide exposure, % control: biguanide at IC50/10; for rotenone sensitive OCR after 6 hours of biguanide exposure, average: OCR normalized to OCR immediately prior to biguanide addition; for rotenone sensitive OCR after 40 mins of biguanide exposure, % control, average / rotenone sensitive OCR after 40 mins of biguanide exposure, average / rotenone sensitive OCR after 40 mins of biguanide exposure / rotenone sensitive OCR after 40 mins of biguanide exposure, % control: MDBK intact cells; for rotenone sensitive OCR after 40 mins of biguanide exposure, % control, average / rotenone sensitive OCR after 40 mins of biguanide exposure, average: average of replicates; for rotenone sensitive OCR after 40 mins of biguanide exposure / rotenone sensitive OCR after 40 mins of biguanide exposure, % control: individual replicates
Description: as §1, §2, §3

| Structure (SMILES) | ACC, average normalised to control [1] | p-ACC / AMPK beta ([1]; Experiment 1, 18 hours) | p-ACC / AMPK beta normalised to control ([1]; Experiment 1, 18 hours) | p-ACC ([1]; Experiment 1, 18 hours) | p-ACC / AMPK beta ([1]; Experiment 2, 18 hours) | p-ACC / AMPK beta normalised to control ([1]; Experiment 2, 18 hours) | p-ACC ([1]; Experiment 2, 18 hours) | p-ACC / AMPK beta ([1]; Experiment 3, 18 hours) | p-ACC / AMPK beta normalised to control ([1]; Experiment 3, 18 hours) | p-ACC ([1]; Experiment 3, 18 hours) | rotenone sensitive OCR after 6 hours of biguanide exposure, % control, average (143B cells; 143B cells) [% control] | rotenone sensitive OCR after 6 hours of biguanide exposure, average (143B cells; 143B cells) | inhibition of rotenone-sensitive respiration (in words) (143B cells) | rotenone sensitive OCR after ADP stimulation, % of control, individual replicates (permeabilized 143B cells) | rotenone sensitive OCR after ADP stimulation, individual replicates (permeabilized 143B cells) | rotenone sensitive OCR after 6 hours of biguanide exposure, % control, average (MDBK cells; MDBK cells) [% control] | rotenone sensitive OCR after 6 hours of biguanide exposure, average (MDBK cells; MDBK cells) | rotenone sensitive OCR after 40 mins of biguanide exposure, % control, average (MDBK cells) [% control] | rotenone sensitive OCR after 40 mins of biguanide exposure, average (MDBK cells) | rotenone sensitive OCR after 40 mins of biguanide exposure (MDBK cells) | also measured |
| --- | --- | --- | --- | --- | --- | --- | --- | --- | --- | --- | --- | --- | --- | --- | --- | --- | --- | --- | --- | --- | --- |
| NC(N)=NC(N)=NCCc1ccc(Cl)cc1 [compound 1, 2-[2-(4-chlorophenyl)ethyl]-1-(diaminomethylidene)guanidine] | 9.49 | 1.85 | 9.53 | 848 | 2.03 | 12.57 | 727 | 1.89 | 6.35 | 483 | 3.06 | 3.59 | inhibit respiration | 28.33 % of control and 12.14 % of control and 11.88 % of control and 16.92 % of control and 4.82 % of control and 10.72 % of control and 0.16 % of control and 5.78 % of control and 8.84 % of control and 6.27 % of control | 67.63 and 28.97 and 28.36 and 40.38 and 11.50 and 25.59 and 0.37 and 13.80 and 21.11 and 14.98 | 64.04 | 64.24 | 96.88 | 98.58 | 98.09 and 97.70 and 99.35 (3×) and 96.88 and 99.34 | rotenone sensitive OCR after ADP stimulation, % of control, average (permeabilized 143B cells): 10.59 % of control; rotenone sensitive OCR after ADP stimulation, average (permeabilized 143B cells): 25.27; maximal rate of accumulation (estimated matrix concentration) (MDBK cells; MDBK cells, biguanide at IC50/10 in the extracellular medium (phenformin 34 μM; compound 1 37 μM), estimated from OCR inhibition): 1 µM/min; rotenone sensitive OCR after 40 mins of biguanide exposure, % control (MDBK cells): 96.40 % control and 96.02 % control and 97.64 % control (3×) and 95.21 % control and 97.63 % control |
| N=C(N)NC(N)=Nc1ccccc1 [compound 2, phenyl biguanide] | 1.20 | 0.25 | 1.30 | 118 | 0.22 | 1.36 | 75.8 | 0.28 | 0.93 | 59.9 | 98.12 | 115.02 | do not | 64.11 % of control and 81.27 % of control and 71.75 % of control and 89.78 % of control and 64.02 % of control and 84.74 % of control and 60.92 % of control and 78.85 % of control and 104.39 % of control and 61.15 % of control | 153.03 and 194.01 and 171.28 and 214.31 and 152.84 and 202.30 and 145.43 and 188.22 and 249.19 and 145.97 | 99.86 | 100.16 | 98.99 | 100.73 | 97.96 and 102.05 and 98.68 and 102.17 and 103.50 and 100.00 | rotenone sensitive OCR after ADP stimulation, % of control, average (permeabilized 143B cells): 76.10 % of control; rotenone sensitive OCR after ADP stimulation, average (permeabilized 143B cells): 181.66; inhibition of the OCR (in words) (permeabilized 143B cells; permeabilized 143B cells, biguanide concentration equal to IC50): only limited inhibition; rotenone sensitive OCR after 40 mins of biguanide exposure, % control (MDBK cells): 96.27 % control and 100.30 % control and 96.98 % control and 100.41 % control and 101.71 % control and 98.28 % control |
| NC(N)=NC(N)=NCc1ccccc1 [compound 3, 2-benzyl-1-(diaminomethylidene)guanidine] | 12.79 | 2.45 | 12.63 | 1150 | 2.31 | 14.32 | 699 | 3.41 | 11.43 | 770 | 3.11 | 3.64 | inhibit respiration | 6.07 % of control and 2.51 % of control and 3.63 % of control and 7.99 % of control and 8.80 % of control and 18.64 % of control and 13.94 % of control and 7.14 % of control and 16.57 % of control and 2.18 % of control and 7.53 % of control | 14.50 and 5.99 and 8.67 and 19.08 and 21.01 and 44.51 and 33.29 and 17.05 and 39.56 and 5.21 and 17.98 | 18.14 | 18.19 | 88.51 | 90.06 | 86.89 and 91.07 and 89.16 and 91.81 and 91.02 and 90.42 | rotenone sensitive OCR after 40 mins of biguanide exposure, % control (MDBK cells): 85.39 % control and 89.50 % control and 87.62 % control and 90.23 % control and 89.45 % control and 88.86 % control |
| CC(C)N=C(N)N=C(N)N [compound 4, 1-(diaminomethylidene)-2-(propan-2-yl)guanidine] | 13.65 | 2.64 | 13.60 | 1170 | 2.65 | 16.42 | 693 | 3.25 | 10.92 | 641 | 0.91 | 1.07 | inhibit respiration | -1.48 % of control and 3.88 % of control and 15.33 % of control and 9.59 % of control and 8.04 % of control and 7.71 % of control and 5.26 % of control and 0.97 % of control and -3.74 % of control and 3.83 % of control | -3.53 and 9.26 and 36.59 and 22.89 and 19.19 and 18.41 and 12.55 and 2.31 and -8.93 and 9.14 | 18.29 | 18.34 | 93.72 | 95.36 | 95.78 and 95.98 and 96.95 and 94.61 and 94.86 and 94.00 | estimated rate of uptake into mitochondria (143B cells; 143B cells, 3 mM in the extracellular medium): > 1.5 mM/min; rotenone sensitive OCR after ADP stimulation, % of control, average (permeabilized 143B cells): 4.94 % of control; rotenone sensitive OCR after ADP stimulation, average (permeabilized 143B cells): 11.79; rotenone sensitive OCR after 40 mins of biguanide exposure, % control (MDBK cells): 94.13 % control and 94.32 % control and 95.28 % control and 92.98 % control and 93.22 % control and 92.38 % control |
